This note sets out measurements from paper PMC12089509, “NorA Efflux Pump Inhibitors: Expanding SAR Knowledge of Pyrazolo[4,3‐c][1,2]benzothiazine 5,5‐Dioxide Derivatives” (Archiv Der Pharmazie, 2025).

≈ marks a conversion by molar mass, not a printed value. Where two headings read alike, the source gives them in different places. Some results are limits rather than exact numbers.

As a reminder, the MIC is the lowest concentration that inhibits growth of the organism. The low end stands for a more susceptible organism, the high end for a less susceptible organism. What is called viability is the share of living cells, or the viability signal relative to a control. In general, inhibition refers to the drop in the measured response relative to a control, in per cent.

In data set [1] the test system is S. aureus SA-K1902 (norA-). In words: MIC evaluation against SA-K1902. It is filed as cell-based, Staphylococcus aureus. The note with it: for MIC: Staphylococcus aureus. From the text: (§1) Conversely, interesting results were obtained against SA‐K2378, which overexpresses the norA gene (Table 2). […] This corroborates the hypothesis that their activity is strictly related to NorA EP inhibition.
(§2) In this study, the S. aureus strains SA‐1199B (overexpressing norA) and its isogenic parent SA‐1199 (wild type), the pair SA‐K1902 (norA‐depleted) and SA‐K2378 (complemented with a pCU1 plasmid harboring the norA promoting and coding region from SA‐1199B), were used to test EPI activity as described in a previous study. Furthermore, the S. aureus ATCC 29213 was used as the reference strain in MIC determination experiments.

Data set [2] relates to S. aureus SA-K2378 (norA ++). The data set can be described thus: MIC evaluation against SA-K2378. It is filed as cell-based, Staphylococcus aureus. The following applies: for MIC: Staphylococcus aureus.
Description: as §1, §2

Data set [3] has as its system S. aureus SA-K1902 (norA-). The data set can be described thus: Checkerboard assay EPI/CPX against SA-K1902. It is filed as cell-based, Staphylococcus aureus. On the procedure: (§3) Checkerboard assays were carried out using SA‐K1902 and SA‐K2378 strains according to standard procedures.
The nature of data set [4]: MTT cytotoxicity assay on MCF7. The following applies: human, MCF7 cells, read-out: Cytotoxicity (% cell viability). It is filed as cell-based. How it is done:
(§4) The MTT assay was performed on two human ATCC cell lines, that is, […] (CCL‐185) and MCF7 (HTB‐22), to test the potential cytotoxic effect of the compounds, after 72 h exposure, as previously described. Each compound was tested at concentrations ranging from 12.5 to 100 μg/mL. Untreated cells were considered as controls. The percentage of viable cells was calculated as follows: % Cell viability = 100 × treated well absorbance/untreated control well absorbance. All assays were performed once in technical quadruplicate.
(In general: Formazan colour is commonly taken as a measure of viable cells.)

For data set [5], the system named is S. aureus SA-K2378 (norA ++). The data set can be described thus: Checkerboard assay EPI/CPX against SA-K2378. It is filed as cell-based, Staphylococcus aureus. How it is done:
as §1, §3

Data set [6] concerns Staphylococcus aureus SA-1199B. The data set can be described thus: MIC determination (broth microdilution) against SA-1199B. It is filed as cell-based. The note with it: SA1199B.
Description: as §2
(In general: Broth dilution looks for growth in wells or tubes with falling amounts of substance.)

Data set [7] in a line: MTT cytotoxicity assay on A549. It is filed as cell-based. The following applies: human, A549 cells, read-out: Cytotoxicity (% cell viability). On the procedure: as §4
The subject of data set [8] is Staphylococcus aureus SA-1199B. It is filed as cell-based. From the text: For purposes of comparison, compound 1 was included as a reference.
For data set [9], the target named is T1, S. aureus NorA efflux pump (SA-1199B strain, overexpresses the norA gene) (Staphylococcus aureus, UniProt P0A0J7).
T1 construct: endogenous in cells; host or cells: S. aureus SA-1199B (overexpresses norA; isogenic parent SA-1199)
T1 sequence (P0A0J7 whole entry): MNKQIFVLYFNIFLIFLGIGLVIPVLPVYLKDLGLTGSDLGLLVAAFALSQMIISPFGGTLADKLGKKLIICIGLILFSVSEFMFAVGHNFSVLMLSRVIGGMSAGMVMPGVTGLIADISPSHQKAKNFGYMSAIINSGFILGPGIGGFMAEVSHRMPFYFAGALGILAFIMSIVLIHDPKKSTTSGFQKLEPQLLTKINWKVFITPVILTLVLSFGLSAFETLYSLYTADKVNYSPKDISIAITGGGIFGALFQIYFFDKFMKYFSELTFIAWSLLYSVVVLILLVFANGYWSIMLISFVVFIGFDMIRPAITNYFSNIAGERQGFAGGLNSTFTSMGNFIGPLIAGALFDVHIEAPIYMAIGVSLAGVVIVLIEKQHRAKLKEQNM
In words: EtBr efflux inhibition assay. It is filed as cell-based. The note with it: for inhibition at 10 µM: read-out: EtBr efflux inhibition (%), compound at 10 µM, SA-1199B; for inhibition at 50 µM: read-out: EtBr efflux inhibition (%), compound at 50 µM, SA-1199B. How it is done: EtBr efflux inhibition assays were conducted using the S. aureus SA‐1199B strain, which overexpresses the norA gene and has an A116E GrlA substitution. Each compound was tested at 50 µM (see Figure 2). The starting hit compound 1 was used as the internal standard for comparison with the previously reported data.
The cells were grown overnight in cation‐supplemented Mueller–Hinton broth (CAMHB) without any additives at 35°C. The organisms were subsequently diluted into CAMHB to obtain an optical density at 600 nm (OD600) of 0.7–0.8. Subsequently, the cells were pelleted and resuspended at an OD600 of 0.8 in 0.5 mL aliquots of CAMHB containing EtBr and carbonyl cyanide m‐chlorophenylhydrazone (CCCP) to “load” the cells with EtBr (final concentrations of 25 μM for EtBr and 100 μM for CCCP). Following 20 min of incubation at room temperature, the cells were pelleted and resuspended in 1 mL of fresh CAMHB. Immediately thereafter, 200 μL aliquots were transferred into the wells of white 96‐well plates, which either lacked or contained 50 or 10 μM of each test compound. Fluorescence was monitored continuously using a microplate reader (Infinite M200 Pro, TECAN) at excitation and emission wavelengths of 485 and 645 nm, respectively, for a period of 5 min. The experiments were conducted in triplicate, with two technical replicates per biological replicate. The efflux activity of the SA‐1199B strain was expressed as a percentage of fluorescence decrease over a 5‐min time course. The inhibition of this efflux by the test compounds was determined using the following equation: ([efflux in the absence] ‐ [efflux in the presence of test [compound])/[efflux in the absence of test compound] × 100, which yielded the percent efflux inhibition observed.
^a Experiments were performed in triplicate with two technical replicates per biological replicate. Efflux activity of SA-1199B was expressed as percent fluorescence decrease over a 5 min time course. Inhibition of this efflux by test compounds was determined using the equation [efflux in the absence] − [efflux in the presence of test [compound]/[efflux in the absence of test compound] × 100, giving the percent efflux inhibition observed.

For data set [10], the system named is Staphylococcus aureus SA-K2378 biofilm. It is filed as cell-based. From the text: The formation of biofilms is a significant contributor to the development of AMR [1, 26, 27]. This is due to the fact that biofilms provide a protective environment for bacteria, thereby rendering them more resilient to the effects of common antibacterial agents. Over the years, several investigations have been conducted to study the role of EPs in the various stages of microbial biofilm formation. However, a definitive answer regarding the potential role of EPs in this microbial pathway remains elusive. While some studies have reported a negative effect of certain EPs on biofilm formation, others have highlighted the promising role of EPIs in limiting biofilm formation and enhancing the efficacy of antibiotics under biofilm conditions.
The biofilm production by SA‐K1902 and SA‐K2378 strains was analyzed in flat 96‐well microtiter plates as previously described, with some modifications. […] The microplates were incubated at 37°C for 24 h in static conditions. After incubation, the biofilms were washed three times with distilled water, dried at 60°C for 1 h, and stained with 0,1% crystal violet for 10 min. After staining, the crystal violet was removed and the wells were washed three times with water, dried at 37°C for 30 min, and the bound crystal violet was solubilized with 96% ethanol in shaking conditions. At the end of the destaining, the absorbance (570 nm) of the solutions in each well was measured using the FLUOstar Omega plate reader (BMG‐LABTECH, Germany) to quantify the biofilm produced in each condition compared with the control (biofilm produced by the strain without any compound/antibiotic). Biofilm assays were performed in triplicate for each condition.

The subject of data set [11] is S. aureus SA-1199 (wild type). In words: MIC determination against wild-type SA-1199. It is filed as cell-based. The note with it: Staphylococcus aureus, compound alone. From the text:
(§5) This finding aligns with their mechanism of action, which involves the inhibition of NorA, which is only basally expressed in the wild‐type SA‐1199 strain.

The subject of data set [12] is S. aureus SA-1199 (wild type). The data set can be described thus: Synergistic assay with CPX against wild-type SA-1199. It is filed as cell-based, Staphylococcus aureus. The note with it: EPI at 3.13 µg/mL with CPX.
Description: as §5

`O=[N+]([O-])c1ccc(-n2nc(-c3ccc(Cl)cc3)c3c2-c2ccccc2S(=O)(=O)N3)cc1` [Compound 1, reference compound]: the minimum inhibitory concentration (MIC) in data set [1] was 12.5 µg/mL (≈ 27.6 µM); in [2], 12.5 µg/mL (≈ 27.6 µM); in data set [6], 50 µg/mL (≈ 110 µM). Further, the “CPX MIC” value in [3] (EPI at 0.8 µg/mL) is reported as 0.15 µg/mL; in data set [3] (EPI at 1.6 µg/mL), 0.15 µg/mL; in data set [3] (EPI at 3.13 µg/mL), 0.15 µg/mL; in data set [5] (EPI at 0.8 µg/mL) it was 0.6 µg/mL; in data set [5] (EPI at 1.6 µg/mL) it was 0.3 µg/mL; in [5] (EPI at 3.13 µg/mL) it was 0.3 µg/mL. The “N° CPX MIC reduction” value in data set [3] (EPI at 0.8 µg/mL) amounted to 0; in data set [3] (EPI at 1.6 µg/mL), 0; in data set [3] (EPI at 3.13 µg/mL) it was 0; in data set [5] (EPI at 0.8 µg/mL), 2; in data set [5] (EPI at 1.6 µg/mL), 4; in data set [5] (EPI at 3.13 µg/mL) it was 4. Besides, the viability at 72 h, 12.5 µg/mL in data set [4] (MCF7, 12.5 μg/mL) was found to be 81 ± 6%; in [7] (A549, 12.5 μg/mL), 90 ± 16%. The viability at 72 h, 25 µg/mL came to 71 ± 3% in [4] (MCF7, 25 μg/mL) and 76 ± 1% in data set [7] (A549, 25 μg/mL). The viability at 72 h, 50 µg/mL in data set [4] (MCF7, 50 μg/mL) was 50 ± 3%; in data set [7] (A549, 50 μg/mL), 32 ± 5%. Further, the viability at 72 h, 100 µg/mL was 43 ± 3% in data set [4] (MCF7, 100 μg/mL) and 8 ± 1% in data set [7] (A549, 100 μg/mL). Further, the “N° fold CPX MIC reduction” value in data set [8] (EPI at 3.12 µg/mL) was 2 fold; in [8] (EPI at 6.25 µg/mL), 8 fold; in data set [8] (EPI at 12.5 µg/mL), 16 fold. Moreover, the inhibition at 10 µM in data set [9] was 0%. For the same compound, in data set [9], the inhibition at 50 µM amounted to 77%.

In the case of `CN1c2c(-c3ccc(F)cc3)nn(C)c2-c2ccc(OCCN3CCOCC3)cc2S1(=O)=O` [Compound 19, 3‐(4‐Fluorophenyl)‐1,4‐dimethyl‐7‐(2‐morpholin‐4‐ylethoxy)‐1,4‐dihydropyrazolo[4,3‐c][1,2]benzothiazine 5,5‐dioxide], the minimum inhibitory concentration (MIC) is over 50 µg/mL in data set [1], 25 µg/mL (≈ 52.9 µM) in data set [2], over 50 µg/mL in data set [11] and over 50 µg/mL in [6]. Besides, the “CPX MIC” value in data set [3] (EPI at 0.2 µg/mL), in [3] (EPI at 0.4 µg/mL), in data set [3] (EPI at 0.8 µg/mL), in data set [3] (EPI at 1.6 µg/mL), in data set [3] (EPI at 3.13 µg/mL) and in data set [3] (EPI at 6.25 µg/mL) was 0.08 µg/mL each time. The “CPX MIC” value in data set [3] (EPI at 12.5 µg/mL) is 0.15 µg/mL; in data set [5] (EPI at 0.2 µg/mL) it was 0.3 µg/mL; in data set [5] (EPI at 0.4 µg/mL) it was 0.3 µg/mL; in data set [5] (EPI at 0.8 µg/mL), 0.3 µg/mL; in data set [5] (EPI at 1.6 µg/mL), 0.3 µg/mL; in [5] (EPI at 3.13 µg/mL) it was 0.3 µg/mL. The “CPX MIC” value in data set [5] (EPI at 6.25 µg/mL) worked out at 0.16 µg/mL. For the same compound, the “N° CPX MIC reduction” value in data set [3] (EPI at 0.2 µg/mL), in [3] (EPI at 0.4 µg/mL), in [3] (EPI at 0.8 µg/mL), in data set [3] (EPI at 1.6 µg/mL), in data set [3] (EPI at 3.13 µg/mL) and in data set [3] (EPI at 6.25 µg/mL) was 2 each time. The “N° CPX MIC reduction” value in [3] (EPI at 12.5 µg/mL) was 0; in data set [5] (EPI at 0.2 µg/mL), 4; in [5] (EPI at 0.4 µg/mL) it was 4; in data set [5] (EPI at 0.8 µg/mL), 4; in [5] (EPI at 1.6 µg/mL), 4; in data set [5] (EPI at 3.13 µg/mL) it was 4. For the same compound, in data set [5] (EPI at 6.25 µg/mL), the “N° CPX MIC reduction” value amounted to 8. The “effect on biofilm formation in combination with CPX” value in data set [10] (EPI at 0.2 µg/mL combined with CPX, SA-K2378) is “no positive effects”. The “synergistic effect with CPX” value in data set [12] is “did not show any synergistic effect”. For the same compound, the “N° fold CPX MIC reduction” value was 2 fold in [8] (EPI at 3.12 µg/mL) and 4 fold in data set [8] (EPI at 12.5 µg/mL). In data set [9], the inhibition at 10 µM came out at 34%. Moreover, in data set [9], the inhibition at 50 µM is over 70%.

With `O=C(O)c1cn(C2CC2)c2cc(N3CCNCC3)c(F)cc2c1=O` [CPX, ciprofloxacin, reference compound], the “CPX MIC” value is given as 0.15 µg/mL in data set [1] (CPX alone, SA-K1902 (norA-)) and 1.25 µg/mL in data set [2] (CPX alone, SA-K2378 (norA ++)). The “increase in biofilm formation” value in [10] (CPX alone at ½ MIC, vs untreated control) is reported as 42%. The compound also gave an MIC in data set [6] of 10 µg/mL (≈ 30.2 µM).
